Data reported in PubChem BioAssay AID248 (DTP/NCI, 2004).
“And” between values parts separate entries of the source, which are not always exact repeats. Equal entries are not always repeated. Inconclusive results and toxic doses are left out. Rule as the data show it: active = T/C of 150% or more; inactive = T/C below 125%.

Tested on: L1210 leukemia ip in BDF1 mice, survival T/C
Assay: NCI In Vivo Anticancer Drug Screen. Data for tumor model L1210 Leukemia (intraperitoneal) in B6D2F1 (BDF1) mice
Settings: endpoint: mean survival time, higher = longer survival
Outline: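 Read-out is survival time, reported as the treated-group measurement over the vehicle-control measurement.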

[1] = dose: 100.0 mg/kg/injection, schedule: Q04DX002 (ip), vehicle: Klucel (hydroxypropylcellulose) (HPC)
[2] = dose: 200.0 mg/kg/injection, schedule: Q04DX002 (ip), vehicle: Klucel (hydroxypropylcellulose) (HPC)
[3] = dose: 100.0 mg/kg/injection, schedule: Q01DX009 (ip), vehicle: Klucel (hydroxypropylcellulose) (HPC)
[4] = dose: 200.0 mg/kg/injection, schedule: Q01DX009 (ip), vehicle: Klucel (hydroxypropylcellulose) (HPC)
[5] = dose: 400.0 mg/kg/injection, schedule: Q01DX009 (ip), vehicle: Klucel (hydroxypropylcellulose) (HPC)
[6] = dose: 100.0 mg/kg/injection, schedule: Q04DX003 (ip), vehicle: Klucel (hydroxypropylcellulose) (HPC)
[7] = dose: 200.0 mg/kg/injection, schedule: Q04DX003 (ip), vehicle: Klucel (hydroxypropylcellulose) (HPC)
[8] = dose: 400.0 mg/kg/injection, schedule: Q04DX003 (ip), vehicle: Klucel (hydroxypropylcellulose) (HPC)
[9] = dose: 100.0 mg/kg/injection, schedule: Q01DX009 (ip), vehicle: saline
[10] = dose: 200.0 mg/kg/injection, schedule: Q01DX009 (ip), vehicle: saline

Measured: T/C

CN=C(NC)c1ccc(NC(=O)c2cc(Cl)cc(C(=O)Nc3ccc(C(=NC)NC)cc3)c2)cc1
inactive: dose: 1.88 mg/kg/injection, schedule: Q01DX Z (ip), vehicle: saline 88 % of control | dose: 3.75 mg/kg/injection, schedule: Q01DX Z (ip), vehicle: saline 94 % of control | dose: 7.5 mg/kg/injection, schedule: Q01DX Z (ip), vehicle: saline 93 % of control | dose: 15.0 mg/kg/injection, schedule: Q01DX Z (ip), vehicle: saline 104 % of control and 115 % of control

O=S1(=O)c2ccccc2-c2ncccc21
inactive: dose: 25.0 mg/kg/injection, schedule: Q01DX001 (ip), vehicle: saline with Tween-80 105 % of control | dose: 50.0 mg/kg/injection, schedule: Q01DX001 (ip), vehicle: saline with Tween-80 109 % of control | dose: 100.0 mg/kg/injection, schedule: Q01DX001 (ip), vehicle: saline with Tween-80 109 % of control

CCC(/C=C1\Oc2ccc(-c3ccccc3)cc2N1CC)=C\c1oc2ccc(-c3ccccc3)cc2[n+]1CC
inactive: dose: 0.1 mg/kg/injection, schedule: Q01DX009 (ip), vehicle: other 102 % of control | dose: 0.3 mg/kg/injection, schedule: Q01DX009 (ip), vehicle: other 110 % of control | dose: 0.6 mg/kg/injection, schedule: Q01DX009 (ip), vehicle: other 116 % of control | dose: 0.62 mg/kg/injection, schedule: Q01DX009 (ip), vehicle: saline 111 % of control | dose: 1.2 mg/kg/injection, schedule: Q01DX009 (ip), vehicle: other 116 % of control | dose: 1.25 mg/kg/injection, schedule: Q01DX009 (ip), vehicle: saline 108 % of control | dose: 2.5 mg/kg/injection, schedule: Q01DX009 (ip), vehicle: saline 114 % of control | dose: 2.6 mg/kg/injection, schedule: Q01DX009 (ip), vehicle: other 122 % of control | dose: 5.0 mg/kg/injection, schedule: Q01DX009 (ip), vehicle: saline 103 % of control | dose: 19.0 mg/kg/injection, schedule: Q01DX001 (ip), vehicle: other 109 % of control

O=Cc1nc2ccccc2c2ccccc12
inactive: dose: 100.0 mg/kg/injection, schedule: Q04DX003 (ip), vehicle: saline with Tween-80 89 % of control | dose: 200.0 mg/kg/injection, schedule: Q04DX003 (ip), vehicle: saline with Tween-80 94 % of control | dose: 400.0 mg/kg/injection, schedule: Q04DX003 (ip), vehicle: saline with Tween-80 103 % of control

N#Cc1cnn2c(=O)[nH]cnc12
inactive: dose: 100.0 mg/kg/injection, schedule: Q01DX009 (ip), vehicle: saline sonified 95 % of control | dose: 100.0 mg/kg/injection, schedule: Q04DX003 (ip), vehicle: saline sonified 93 % of control | dose: 200.0 mg/kg/injection, schedule: Q01DX009 (ip), vehicle: saline sonified 91 % of control | dose: 200.0 mg/kg/injection, schedule: Q04DX003 (ip), vehicle: saline sonified 101 % of control | dose: 400.0 mg/kg/injection, schedule: Q04DX003 (ip), vehicle: saline sonified 95 % of control

CN1CCC(CSC(=O)C(O)(c2ccccc2)C2CCCCC2)C1 (centres undefined)
inactive: dose: 75.0 mg/kg/injection, schedule: Q01DX001 (ip), vehicle: saline 97 % of control

CCOC(=O)CNc1ccc(Cl)cc1
inactive: dose: 25.0 mg/kg/injection, schedule: Q04DX002 (ip), vehicle: Klucel (hydroxypropylcellulose) (HPC) 98 % of control and 106 % of control | dose: 50.0 mg/kg/injection, schedule: Q04DX002 (ip), vehicle: Klucel (hydroxypropylcellulose) (HPC) 102 % of control | [1] 101 % of control and 91 % of control | [2] 102 % of control

O=[N+]([O-])c1ccc(NC(=S)Nc2cc([N+](=O)[O-])ccc2Cl)cc1
inactive: dose: 50.0 mg/kg/injection, schedule: Q01DX009 (ip), vehicle: saline with Tween-80 98 % of control | dose: 100.0 mg/kg/injection, schedule: Q01DX009 (ip), vehicle: saline with Tween-80 91 % of control | dose: 200.0 mg/kg/injection, schedule: Q01DX009 (ip), vehicle: saline with Tween-80 91 % of control

Cc1ccc2[c](c1)[Sn]([c]1ccccc1)([c]1ccccc1)[c]1cc(C)ccc1N2C
inactive: dose: 100.0 mg/kg/injection, schedule: Q01DX001 (ip), vehicle: steriod suspending solution 96 % of control | dose: 200.0 mg/kg/injection, schedule: Q01DX001 (ip), vehicle: steriod suspending solution 94 % of control | dose: 400.0 mg/kg/injection, schedule: Q01DX001 (ip), vehicle: steriod suspending solution 96 % of control

O=C(c1ccccc1)C1OC1(CBr)c1ccccc1 (centres undefined)
inactive: dose: 6.25 mg/kg/injection, schedule: Q01DX009 (ip), vehicle: alcohol 96 % of control | dose: 12.5 mg/kg/injection, schedule: Q01DX009 (ip), vehicle: alcohol 95 % of control | dose: 25.0 mg/kg/injection, schedule: Q01DX009 (ip), vehicle: alcohol 98 % of control | dose: 100.0 mg/kg/injection, schedule: Q01DX001 (ip), vehicle: Klucel (hydroxypropylcellulose) (HPC) 100 % of control | [3] 106 % of control | dose: 200.0 mg/kg/injection, schedule: Q01DX001 (ip), vehicle: Klucel (hydroxypropylcellulose) (HPC) 105 % of control | [4] 98 % of control | dose: 400.0 mg/kg/injection, schedule: Q01DX001 (ip), vehicle: Klucel (hydroxypropylcellulose) (HPC) 106 % of control | [5] 96 % of control

Cc1ccc([P+](Cc2ccc(Cl)cc2Cl)(c2ccc(C)cc2)c2ccc(C)cc2)cc1
inactive: dose: 6.25 mg/kg/injection, schedule: Q04DX003 (ip), vehicle: Klucel (hydroxypropylcellulose) (HPC) 103 % of control | dose: 12.5 mg/kg/injection, schedule: Q04DX003 (ip), vehicle: Klucel (hydroxypropylcellulose) (HPC) 92 % of control

CC(=O)CCC(C)N=Cc1ccc(N(C)C)cc1 (centres undefined)
inactive: dose: 100.0 mg/kg/injection, schedule: Q04DX003 (ip), vehicle: saline 92 % of control | dose: 200.0 mg/kg/injection, schedule: Q04DX003 (ip), vehicle: saline 91 % of control | dose: 400.0 mg/kg/injection, schedule: Q04DX003 (ip), vehicle: saline 89 % of control

N#CCCCI
inactive: dose: 50.0 mg/kg/injection, schedule: Q04DX003 (ip), vehicle: acetone 96 % of control | dose: 100.0 mg/kg/injection, schedule: Q04DX003 (ip), vehicle: acetone 100 % of control | dose: 200.0 mg/kg/injection, schedule: Q04DX003 (ip), vehicle: acetone 105 % of control

Cc1cc([N+](=O)[O-])ccc1NC(=O)Nc1cccc(F)c1
inactive: [3] 96 % of control | [1] 90 % of control | [6] 95 % of control | [4] 94 % of control | [2] 88 % of control | [7] 95 % of control | [5] 88 % of control | dose: 400.0 mg/kg/injection, schedule: Q04DX002 (ip), vehicle: Klucel (hydroxypropylcellulose) (HPC) 88 % of control | [8] 95 % of control

COc1cc(OC)c2cc1Cc1cc(c(OC)cc1OC)Cc1cc(c(OC)cc1OC)Cc1cc(c(OC)cc1OC)C2
inactive: [9] 94 % of control | [10] 86 % of control | dose: 400.0 mg/kg/injection, schedule: Q01DX009 (ip), vehicle: saline 86 % of control

CCOC(=O)C1C2CCCCC21 (centres undefined)
inactive: dose: 100.0 mg/kg/injection, schedule: Q01DX001 (ip), vehicle: saline 102 % of control | dose: 200.0 mg/kg/injection, schedule: Q01DX001 (ip), vehicle: saline 96 % of control

CCOC(=O)c1ccccc1COc1ccc([N+](=O)[O-])cc1Cl
inactive: [3] 93 % of control | [4] 93 % of control | [5] 88 % of control

COc1cc2c(cc1O)CCCCC2=O
inactive: dose: 50.0 mg/kg/injection, schedule: Q01DX009 (ip), vehicle: saline 92 % of control | [9] 104 % of control | [6] 97 % of control | [10] 119 % of control | [7] 102 % of control | [8] 94 % of control

Cc1ccc(NC(=O)Nc2ccccc2C)c(C)c1
inactive: [3] 93 % of control | [6] 103 % of control | [4] 90 % of control | [7] 91 % of control | [8] 96 % of control

COc1ccc(C(=O)C(C)C)cc1
inactive: dose: 37.5 mg/kg/injection, schedule: Q01DX009 (ip), vehicle: saline sonified 95 % of control | dose: 75.0 mg/kg/injection, schedule: Q01DX009 (ip), vehicle: saline sonified 93 % of control | dose: 150.0 mg/kg/injection, schedule: Q01DX009 (ip), vehicle: saline sonified 103 % of control
